Patent publication US6489166B1, “Plant regeneration method for mature seed-derived callus in zoysiagrass” (Korea Kumho Petrochemical Co., Ltd., priority 2001, dated 2002)
Like-named read-outs stand apart in the source and are kept apart here.

Assays:
[1] = test system: mature seeds of zoysiagrass; assay: Callus induction from mature seeds on MS media with growth hormone combinations; type: cell-based, Zoysia japonica Steud.; details: for Callus producing seeds (%) / Number of callus producing seeds: MS, 3 months
Description: Seeds of zoysiagrass (Zoysia japonica Steud.), from which seed coats were first removed, were sterilized by soaking in 70% ethyl alcohol for 1 min and subsequently in 5% sodium hypochlorite solution supplemented with 0.001% (v/v) Tween 20 for 15 min. The sterilized seeds were then thoroughly rinsed with sterilized distilled water 3-4 times. They were then germinated and grown for 2 weeks on the N6 media (pH 5.8) containing 1 mg/L 2,4-dichlorophenoxyacetic acid, 3% sucrose, and 0.2% gelite and subject to callus induction. The callus induction and growth was carried out in a controlled environment culture room set at 26° C. and 70% humidity in the dark.
(§1) To examine the effects of plant growth hormones on the callus induction efficiency and the callus morphology, sterilized seeds were placed and cultured on the MS plates supplemented with 4 mg/L thiamine-HCl and 100 mg/L α-ketoglutaric acid. The MS plates, each with a diameter of 9 cm, were further supplemented with various amounts of 2,4-dichlorophenoxyacetic acid (0, 1, 2, 4, 8 mg/L) and 6-benzylaminopurine (0, 0.02, 0.2, 2, 4 mg/L). One hundred seeds were grown per each MS plate, and 3 plates were used for each treatment group. After three months, the number of seeds from which calli had been induced was counted. For the morphological classification of calli, calli were induced and grown on the MS media supplemented with 6-benzylaminopurine and 2,4-dichlorophenoxyacetic acid under the identical condition as described above for three months. They could be morphologically classified into four distinct groups (I-IV), based on the callus morphology, color, and rigidity.
To investigate the effects of plant growth hormones on the callus induction, the mature seed-derived callus induction rates were measured on the MS media supplemented with different amounts of 2,4-dichlorophenoxyacetic acid and 6-benzylaminopurine after grown for three months.
Seeds were plated and grown on the MS media containing 4 mg/L thiamine-HCl, 100 mg/L α-ketoglutaric acid, and different concentration combinations of 2,4-dichlorophenoxyacetic acid and 6-benzylaminopurine for 3 months.

[2] = test system: callus derived from mature seeds of zoysiagrass; assay: Morphology (types I-IV) of callus induced with growth hormone combinations; type: cell-based, Zoysia japonica Steud.; details: 6-benzylaminopurine 0 mg/L, MS, 3 months
Description: as §1
Calli induced on the MS media supplemented with different concentration combinations of 2,4-dichlorophenoxyacetic acid and 6-benzylaminopurine were morphologically and physiologically analysed. Four distinct callus types (types I to IV) could be apparently discriminated by callus color, morphology, and rigidity (FIG. 1).
Seeds were plated on the MS media containing 4 mg/L thiamine-HCl, 100 mg/L α-ketoglutaric acid, and different concentration combinations of 2,4-dichlorophenoxyacetic acid and 6-benzylaminopurine for 3 months. Callus morphologies were rated by; type I: with yellow and differentiated structure, type II: with white, non-friable, and compact structure, type III: with yellow, friable, and compact structure, Type IV: with whitish yellow, friable, soft, and watery appearance. Type I˜III represents the sum of the numbers of types I to III.

[3] = test system: Type I calli derived from mature seeds of zoysiagrass; assay: Effects of cytokinins on shoot induction from callus; type: cell-based, Zoysia japonica Steud.; details: 44 Type I calli tested, MS with 30 g/L maltose, 2 weeks
[4] = test system: Type I calli derived from mature seeds of zoysiagrass; assay: as above; type: cell-based, Zoysia japonica Steud.; details: for Number of shoots over 5 mm / Number of shoots per callus lump: Type I calli, MS with 30 g/L maltose, 2 weeks
Description: The media were additionally supplemented with 1 or 4 mg/L of kinetin, 6-benzylaminopurine, or TDZ. Each treatment consisted of 3 MS plates, each with 16 calli.

[5] = test system: Type I calli derived from mature seeds of zoysiagrass; details: for Calli with green shoot (%) / Number of shoots per callus lump / Shoots over 2 mm (%): Type I calli, 2 weeks
Description: To examine the effects of various sugars on the plant regeneration efficiency from calli, the type I calli were dissected into lumps with a diameter of 2 mm and grown on the MS media containing 1 mg/L TDZ and 3% (w/v) fructose, galactose, glucose, maltose, or sucrose. For each treatment, 3 MS plates, each with 25 calli, were used. […] To determine the optimal concentration of maltose, the type I calli were grown on the MS media supplemented with various concentrations of maltose at 1.5, 3.0, 4.5, 6.0, 7.5, or 9%.
The effects of different sugars on the plant regeneration efficiency from calli were examined using the shoot induction media (SIM) supplemented with different sugars.
Type I calli were cultured on the MS medium containing 1 mg/L TDZ for 2 weeks. Each value in the second column represents a mean calculated from 25 calli per each experiment. Each value in the third column represents a mean calculated from 10 calli for each experiment.
Type I calli were cultured on the MS medium containing 1 mg/L TDZ and various concentrations of maltose for 2 weeks.

[6] = 2,4-dichlorophenoxyacetic acid 1 mg/L, 6-benzylaminopurine 0 mg/L
[7] = 2,4-dichlorophenoxyacetic acid 2 mg/L, 6-benzylaminopurine 0 mg/L
[8] = 2,4-dichlorophenoxyacetic acid 4 mg/L, 6-benzylaminopurine 0 mg/L
[9] = 2,4-dichlorophenoxyacetic acid 8 mg/L, 6-benzylaminopurine 0 mg/L
[10] = 2,4-dichlorophenoxyacetic acid 1 mg/L
[11] = 2,4-dichlorophenoxyacetic acid 2 mg/L
[12] = 2,4-dichlorophenoxyacetic acid 4 mg/L
[13] = 2,4-dichlorophenoxyacetic acid 8 mg/L
[14] = sugar 30 g/L, MS medium with 1 mg/L TDZ
[15] = 2,4-dichlorophenoxyacetic acid 0 mg/L, 6-benzylaminopurine 0.02 mg/L
[16] = 2,4-dichlorophenoxyacetic acid 0 mg/L, 6-benzylaminopurine 0.2 mg/L
[17] = 2,4-dichlorophenoxyacetic acid 0 mg/L, 6-benzylaminopurine 2 mg/L
[18] = 2,4-dichlorophenoxyacetic acid 0 mg/L, 6-benzylaminopurine 4 mg/L
[19] = maltose 15 g/L, MS with 1 mg/L TDZ
[20] = maltose 30 g/L, MS with 1 mg/L TDZ
[21] = maltose 45 g/L, MS with 1 mg/L TDZ
[22] = maltose 60 g/L, MS with 1 mg/L TDZ
[23] = maltose 75 g/L, MS with 1 mg/L TDZ
[24] = maltose 90 g/L, MS with 1 mg/L TDZ

## O=C(O)COc1ccc(Cl)cc1Cl [2,4-dichlorophenoxyacetic acid]
[1]; [6]
  Callus producing seeds (%): 15.5%
  Number of callus producing seeds: 47
[1]; [7]
  Callus producing seeds (%): 10.7%
  Number of callus producing seeds: 18
[1]; [8]
  Callus producing seeds (%): 15.7%
  Number of callus producing seeds: 19
[1]; [9]
  Callus producing seeds (%): 11.1%
  Number of callus producing seeds: 38
[1]; MS media with higher than 4 mg/L of the hormone
  Fate of induced calli: the calli became brownish as they grew and eventually died
[2]; [10]
  Calli Type I˜III (sum of types I to III) (%): 8.5%
  Calli showing Type I morphology (%): 4.3%
  Calli showing Type II morphology (%): 0 (0) %
  Calli showing Type III morphology (%): 4.3%
  Calli showing Type IV morphology (%): 91.5%
  Number of calli Type I˜III (sum of types I to III): 4
  Number of calli showing Type I morphology: 2
  Number of calli showing Type II morphology: 0 (0)
  Number of calli showing Type III morphology: 2
  Number of calli showing Type IV morphology: 43
[2]; [11]
  Calli Type I˜III (sum of types I to III) (%): 5.6%
  Calli showing Type I morphology (%): 0 (0) %
  Calli showing Type II morphology (%): 0 (0) %
  Calli showing Type III morphology (%): 5.6%
  Calli showing Type IV morphology (%): 94.4%
  Number of calli Type I˜III (sum of types I to III): 1
  Number of calli showing Type I morphology: 0 (0)
  Number of calli showing Type II morphology: 0 (0)
  Number of calli showing Type III morphology: 1
  Number of calli showing Type IV morphology: 17
[2]; [12]
  Calli Type I˜III (sum of types I to III) (%): 5.3%
  Calli showing Type I morphology (%): 0 (0) %
  Calli showing Type II morphology (%): 0 (0) %
  Calli showing Type III morphology (%): 5.3%
  Calli showing Type IV morphology (%): 94.7%
  Number of calli Type I˜III (sum of types I to III): 1
  Number of calli showing Type I morphology: 0 (0)
  Number of calli showing Type II morphology: 0 (0)
  Number of calli showing Type III morphology: 1
  Number of calli showing Type IV morphology: 18
[2]; [13]
  Calli Type I˜III (sum of types I to III) (%): 0 (0) %
  Calli showing Type I morphology (%): 0 (0) %
  Calli showing Type II morphology (%): 0 (0) %
  Calli showing Type III morphology (%): 0 (0) %
  Calli showing Type IV morphology (%): 100%
  Number of calli Type I˜III (sum of types I to III): 0 (0)
  Number of calli showing Type I morphology: 0 (0)
  Number of calli showing Type II morphology: 0 (0)
  Number of calli showing Type III morphology: 0 (0)
  Number of calli showing Type IV morphology: 38

## O=C(Nc1ccccc1)Nc1cnns1 [TDZ, thidiazuron]
[3]; growth regulator 1 mg/L
  Number of calli with shoots: 17
[3]; growth regulator 4 mg/L
  Number of calli with shoots: 10
[4]; growth regulator 1 mg/L
  Number of shoots over 5 mm: 14
  Number of shoots per callus lump: 4.8
[4]; growth regulator 4 mg/L
  Number of shoots over 5 mm: 1
  Number of shoots per callus lump: 4.1
[4]; high concentration of TDZ
  Growth of regenerated plants: severely retarded
  Morphology of regenerated plants: plants with abnormal morphology were observed at a high frequency
[4]; only the TDZ included
  Plant regeneration and further growth: plant regeneration was observed, but the plants did not continue growing

## OC[C@H]1O[C@@](CO)(O[C@H]2O[C@H](CO)[C@@H](O)[C@H](O)[C@H]2O)[C@@H](O)[C@@H]1O [Sucrose, sucrose]
[5]; [14]
  Calli with green shoot (%): 45.3 ± 9.3%
  Number of shoots per callus lump: 4.5 ± 0.1
  Shoots over 2 mm (%): 4.5 ± 0.2%

## c1ccc(CNc2ncnc3nc[nH]c23)cc1 [6-benzylaminopurine]
[1]; [15]
  Callus producing seeds (%): 0 (0) %
  Number of callus producing seeds: 0 (0)
[1]; [16]
  Callus producing seeds (%): 0 (0) %
  Number of callus producing seeds: 0 (0)
[1]; [17]
  Callus producing seeds (%): 0 (0) %
  Number of callus producing seeds: 0 (0)
[1]; [18]
  Callus producing seeds (%): 0 (0) %
  Number of callus producing seeds: 0 (0)
[3]; growth regulator 1 mg/L
  Number of calli with shoots: 17
[3]; growth regulator 4 mg/L
  Number of calli with shoots: 9
[4]; growth regulator 1 mg/L
  Number of shoots over 5 mm: 19
  Number of shoots per callus lump: 5.2
[4]; growth regulator 4 mg/L
  Number of shoots over 5 mm: 1
  Number of shoots per callus lump: 3.7

## O=C(CO)[C@@H](O)[C@H](O)[C@H](O)CO [Fructose, fructose]
[5]; [14]
  Calli with green shoot (%): 17.3 ± 2.7%
  Number of shoots per callus lump: 4.4 ± 0.8
  Shoots over 2 mm (%): 12.6 ± 3.0%

## c1coc(CNc2ncnc3[nH]cnc23)c1 [Kinetin, kinetin]
[3]; growth regulator 1 mg/L
  Number of calli with shoots: 8
[3]; growth regulator 4 mg/L
  Number of calli with shoots: 7
[4]; growth regulator 1 mg/L
  Number of shoots over 5 mm: 0
  Number of shoots per callus lump: 3.0
[4]; growth regulator 4 mg/L
  Number of shoots over 5 mm: 0
  Number of shoots per callus lump: 1.7

## OC[C@H]1O[C@H](O[C@H]2[C@H](O)[C@@H](O)C(O)O[C@@H]2CO)[C@H](O)[C@@H](O)[C@@H]1O (mixture of isomers) [Maltose, maltose]
[5]
  Colour of leaf and stem margins of regenerated plants: exhibited color caused by accumulation of anthocyanin-related pigments
  Physical stress on cultured cells (anthocyanin accumulation in regenerated shoots): confers a physical stress on the cultured cells
[5]; [19]
  Calli with green shoot (%): 37.3%
  Number of shoots per callus lump: 9.9 ± 0.1
  Shoots over 2 mm (%): 45.2 ± 3.4%
[5]; [20]
  Calli with green shoot (%): 36.0%
  Number of shoots per callus lump: 12.9 ± 1.2
  Shoots over 2 mm (%): 51.4 ± 3.9%
[5]; [21]
  Calli with green shoot (%): 32.0%
  Number of shoots per callus lump: 10.2 ± 1.3
  Shoots over 2 mm (%): 32.1 ± 3.6%
[5]; [22]
  Calli with green shoot (%): 29.3%
  Number of shoots per callus lump: 4.9 ± 0.6
  Shoots over 2 mm (%): 14.5 ± 5.5%
[5]; [23]
  Calli with green shoot (%): 30.7%
  Number of shoots per callus lump: 8.3 ± 0.9
  Shoots over 2 mm (%): 27.3 ± 4.0%
[5]; [24]
  Calli with green shoot (%): 28.0%
  Number of shoots per callus lump: 2.5 ± 0.3
  Shoots over 2 mm (%): 6.7 ± 0.2%
[5]; [14]
  Calli with green shoot (%): 33.3 ± 2.7%
  Number of shoots per callus lump: 9.4 ± 0.3
  Shoots over 2 mm (%): 46.4 ± 5.0%

## O=C[C@H](O)[C@@H](O)[C@@H](O)[C@H](O)CO [Galactose, galactose]
[5]; [14]
  Calli with green shoot (%): 0%
  Number of shoots per callus lump: 0
  Shoots over 2 mm (%): 0%
